Experimental data as given in ChEMBL document CHEMBL1201862, “PubChem BioAssay data set” (2004).
Active and inactive are the calls of the source.

Experiments:
cells [1] = format: functional, cell-based
[2] = target: T1, Trace amine-associated receptor 1 (Homo sapiens, UniProt Q96RJ0); test: Counterscreen for agonists of the human trace amine associated receptor 1 (hTAAR1): Fluorescence-based cell-based high throughput dose response assay to identify hTAAR1 agonist that also desensitize TAAR1 receptor response.; format: functional
[3] = target: T1, Trace amine-associated receptor 1; test: Fluorescence-based cell-based high throughput dose response assay to identify agonists of the human trace amine associated receptor 1 (TAAR1).; format: functional
cells [4] = format: functional, cell-based; remark: listed apart in the source
Caspase-3 = target: T2, Caspase-3 (Homo sapiens, UniProt P42574); test: Dose-response confirmation of uHTS inhibitor hits of Sentrin-Specific Protease 8 in a Caspase-3 Fluorescence assay.; format: functional
T2 sequence (P42574 whole entry): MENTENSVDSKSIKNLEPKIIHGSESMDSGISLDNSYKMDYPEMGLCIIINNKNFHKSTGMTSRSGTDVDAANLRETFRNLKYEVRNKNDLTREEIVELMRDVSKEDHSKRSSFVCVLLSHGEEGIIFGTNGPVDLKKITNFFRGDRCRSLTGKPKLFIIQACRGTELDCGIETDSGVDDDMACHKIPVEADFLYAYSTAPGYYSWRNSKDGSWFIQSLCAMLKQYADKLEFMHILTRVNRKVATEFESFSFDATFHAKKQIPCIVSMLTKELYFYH

[5] = target: T3, Sentrin-specific protease 8 (Homo sapiens, UniProt Q96LD8); format: functional
T3 sequence (Q96LD8 whole entry): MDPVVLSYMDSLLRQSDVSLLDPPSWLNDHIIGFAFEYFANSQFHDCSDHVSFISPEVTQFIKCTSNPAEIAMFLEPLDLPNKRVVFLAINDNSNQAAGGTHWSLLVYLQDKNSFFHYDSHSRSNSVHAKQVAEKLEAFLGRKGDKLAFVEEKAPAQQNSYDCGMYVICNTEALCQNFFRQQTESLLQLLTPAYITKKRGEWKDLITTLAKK

[6] = target: T3, Sentrin-specific protease 8; format: functional; remark: listed apart in the source
Caspase-6 = target: T4, Caspase-6 (Homo sapiens, UniProt P55212); test: human caspase-6 inhibitors, dose response, biochemical, VEID-R110 fluorescence, cherry-pick (AID 720632)
T4 sequence (P55212 whole entry): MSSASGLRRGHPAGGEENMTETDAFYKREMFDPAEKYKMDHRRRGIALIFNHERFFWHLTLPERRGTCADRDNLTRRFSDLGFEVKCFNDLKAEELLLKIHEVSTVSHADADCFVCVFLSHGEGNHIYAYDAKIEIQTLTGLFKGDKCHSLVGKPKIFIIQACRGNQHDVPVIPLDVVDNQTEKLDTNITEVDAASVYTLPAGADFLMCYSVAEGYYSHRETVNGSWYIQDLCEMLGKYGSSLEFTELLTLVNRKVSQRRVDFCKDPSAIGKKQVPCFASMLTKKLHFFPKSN

[7] = target: T5, DNA repair and recombination protein RAD54-like (Homo sapiens, UniProt Q92698); test: inhibitors of human RAD54 branch migration, confirmation, biochemical, fluorescence, cherry-picked samples, dose series (AID 651657); format: functional
T5 sequence (Q92698 whole entry): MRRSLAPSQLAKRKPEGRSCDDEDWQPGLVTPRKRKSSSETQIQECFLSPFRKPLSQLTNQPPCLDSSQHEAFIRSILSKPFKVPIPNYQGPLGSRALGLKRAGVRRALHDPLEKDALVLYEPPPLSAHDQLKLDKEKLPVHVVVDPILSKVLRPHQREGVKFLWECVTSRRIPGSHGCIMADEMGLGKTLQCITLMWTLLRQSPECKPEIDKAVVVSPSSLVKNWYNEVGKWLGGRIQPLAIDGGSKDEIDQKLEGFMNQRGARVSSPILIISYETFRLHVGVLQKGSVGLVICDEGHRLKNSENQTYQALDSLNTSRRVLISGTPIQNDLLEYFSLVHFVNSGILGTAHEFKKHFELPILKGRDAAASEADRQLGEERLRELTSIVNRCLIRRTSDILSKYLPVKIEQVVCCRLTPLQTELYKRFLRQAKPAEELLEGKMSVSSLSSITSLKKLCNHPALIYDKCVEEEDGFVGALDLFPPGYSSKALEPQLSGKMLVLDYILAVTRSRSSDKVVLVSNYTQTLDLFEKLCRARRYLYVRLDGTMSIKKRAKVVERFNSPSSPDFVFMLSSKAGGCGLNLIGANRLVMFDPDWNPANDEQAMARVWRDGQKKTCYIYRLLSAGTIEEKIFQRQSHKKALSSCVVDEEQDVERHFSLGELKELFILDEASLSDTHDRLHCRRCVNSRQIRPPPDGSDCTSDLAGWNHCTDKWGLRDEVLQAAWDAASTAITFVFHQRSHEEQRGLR

[8] = MDA-MB-231 cell growth inhibition, dose response, cytotoxicity control for RAD54 inhibitor project, CellTiter-Glo luminescence, cherry-pick (AID 651692); format: functional, cell-based
Vero = test: host cell cytotoxicity of antiviral hits, dose response, cytotoxicity control for West Nile virus antiviral project, secondary assay (AID 1650); format: functional; settings: Chlorocebus sabaeus
[9] = HEp-2 cell cytotoxicity, dose response, cytotoxicity control for RSV inhibitor project, HTS (AID 2410); format: functional; settings: human respiratory syncytial virus
A549 = test: A549 cell toxicity, dose response, cytotoxicity control, plate reader, cherry-pick samples (AID 687028); format: functional, cell-based; settings: Homo sapiens
Beta-lactamase [10] = target: T6, Beta-lactamase (Pseudomonas aeruginosa, UniProt Q79MP6); test: […] counterscreen for selective VIM-2 inhibitors: dose response biochemical high throughput screening assay to identify inhibitors of IMP-1 metallo-beta-lactamase.
Beta-lactamase [11] = target: T6, Beta-lactamase; test: IMP-1 metallo-beta-lactamase inhibitors, dose response, selectivity assay for VIM-2 inhibitor project, biochemical, epi-absorbance (AID 1920)
Beta Lactamase [12] = target: T7, Beta Lactamase (Pseudomonas aeruginosa, UniProt Q932Y6); test: VIM-2 metallo-beta-lactamase inhibitor potency, dose response, biochemical, epi-absorbance readout, selective inhibitors (AID 1919)
Beta-lactamase [13] = target: Beta-lactamase (Salmonella choleraesuis (strain SC-B67), UniProt Q5J463); test: Epi-absorbance-based counterscreen for selective VIM-2 inhibitors: dose response biochemical high throughput screening assay to identify inhibitors of TEM-1 serine-beta-lactamase.
Beta Lactamase [14] = target: T7, Beta Lactamase; test: VIM-2 inhibitor FRET-based artefact check, dose response, artefact control for selective VIM-2 inhibitor project, biochemical, FRET readout, CCF2 substrate (AID 1926)
[15] = lymphoblastoid cell cytotoxicity, dose response, cytotoxicity control, plate reader, dry powder, set 2 (AID 624367); format: functional
[16] = HEK293 cell viability, dose response, counter-screen for EBV LMP1 inhibitor project, dry powder, set 2 (AID 624374); format: functional

T1 sequence (Q96RJ0 whole entry): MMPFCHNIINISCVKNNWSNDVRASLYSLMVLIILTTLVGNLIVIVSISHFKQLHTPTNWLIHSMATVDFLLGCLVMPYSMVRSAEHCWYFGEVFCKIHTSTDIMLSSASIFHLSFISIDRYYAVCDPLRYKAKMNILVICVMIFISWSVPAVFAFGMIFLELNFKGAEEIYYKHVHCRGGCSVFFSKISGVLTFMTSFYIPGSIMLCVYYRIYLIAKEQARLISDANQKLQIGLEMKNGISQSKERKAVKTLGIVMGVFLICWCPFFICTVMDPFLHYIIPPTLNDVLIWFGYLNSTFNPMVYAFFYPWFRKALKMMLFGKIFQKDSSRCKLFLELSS
T6 sequence (Q79MP6 whole entry): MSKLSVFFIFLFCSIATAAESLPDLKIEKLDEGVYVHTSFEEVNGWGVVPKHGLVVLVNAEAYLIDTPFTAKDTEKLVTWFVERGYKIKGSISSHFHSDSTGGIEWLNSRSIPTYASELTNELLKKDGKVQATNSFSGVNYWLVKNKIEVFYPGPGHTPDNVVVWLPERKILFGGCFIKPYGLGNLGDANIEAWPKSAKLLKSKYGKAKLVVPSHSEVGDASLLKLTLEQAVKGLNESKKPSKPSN
T7 sequence (Q932Y6 whole entry): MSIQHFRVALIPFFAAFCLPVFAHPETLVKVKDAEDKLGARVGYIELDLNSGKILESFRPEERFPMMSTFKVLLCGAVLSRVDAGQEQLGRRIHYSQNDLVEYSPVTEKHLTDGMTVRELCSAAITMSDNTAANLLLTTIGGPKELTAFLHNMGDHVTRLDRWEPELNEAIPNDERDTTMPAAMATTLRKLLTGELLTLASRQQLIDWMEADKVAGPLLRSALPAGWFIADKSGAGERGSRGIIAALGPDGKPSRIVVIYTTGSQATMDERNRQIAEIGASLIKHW
Sequence of Beta-lactamase (Salmonella choleraesuis (strain SC-B67), UniProt Q5J463) (Q5J463 whole entry): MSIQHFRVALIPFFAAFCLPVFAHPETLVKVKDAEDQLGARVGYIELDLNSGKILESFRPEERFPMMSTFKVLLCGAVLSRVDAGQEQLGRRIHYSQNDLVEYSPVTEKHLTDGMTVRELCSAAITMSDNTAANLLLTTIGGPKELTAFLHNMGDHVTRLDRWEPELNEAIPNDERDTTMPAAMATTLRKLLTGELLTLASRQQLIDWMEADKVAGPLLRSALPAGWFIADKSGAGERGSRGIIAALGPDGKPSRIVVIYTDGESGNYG

For O=C(O)/C=C/C(=O)NCCC1=CCCCC1, the EC50 (cells [1]) was > 29.9 µM (inactive), the IC50 [2] was 7.65 µM (active) and the EC50 [3] was 1.39 µM (active). The IC50 (cells [4]) was > 29.9 µM (inactive).
In the case of O=C(COC(=O)c1ccc([N+](=O)[O-])o1)NCc1ccc(F)cc1, the IC50 (Caspase-3) is reported as 99.7 µM (inactive), the IC50 [5] is reported as 11.7 µM (active) and the IC50 [6] is reported as 6.4 µM (active). For the same compound, the AC50 (Caspase-6) was 40.7 µM (active).
In the case of CN1CCCC1CCNc1ccc2sc3ccccc3c(=O)c2c1 (stereo not given), the AC50 [7] is reported as 13.6 µM (active), the AC50 [8] is reported as 48.8 µM (active) and the CC50 (Vero) is reported as 21.1 µM (active). For the same compound, the CC50 [9] was 11.5 µM (active) and the AC50 (A549) was 20.2 µM (active).
For O=C(C1=C(O)C(=O)N(Cc2cccnc2)C1c1ccccn1)c1ccccc1 (stereo not given), the IC50 (Beta-lactamase [10]) was > 59.6 µM (inactive), the IC50 (Beta-lactamase [11]) was > 59.6 µM (inactive) and the IC50 (Beta Lactamase [12]) was 5 µM (active). For the same compound, the IC50 (Beta-lactamase [13]) was > 59.6 µM (inactive) and the IC50 (Beta Lactamase [14]) was 2.17 µM (active).
With Cc1noc(C)c1S(=O)(=O)Nc1ccc2c(c1)C(=O)N([C@@H](C)CO)C[C@@H](C)[C@@H](CN(C)Cc1ccc(C(F)(F)F)cc1)OCCCC[C@H](C)O2 the AbsAC35 [15] was 52.95 µM and the AbsAC35 [16] was 54.05 µM.
